Data as given in PubChem BioAssay AID248 (DTP/NCI, 2004).
Several values for one entry are separate records, joined by “and”; a condition that tells them apart may be missing. Identical values can stand only once. Inconclusive results and toxic doses are left out. No stated cut-off is given here; in the data, active means T/C of 150% or more; inactive means T/C below 125%.

System: L1210 leukemia ip in BDF1 mice, survival T/C
Assay: NCI In Vivo Anticancer Drug Screen. Data for tumor model L1210 Leukemia (intraperitoneal) in B6D2F1 (BDF1) mice
Settings: endpoint: mean survival time, higher = longer survival
In short: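 Read-out is survival time, reported as the treated-group measurement over the vehicle-control measurement.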

[1] = dose: 100.0 mg/kg/injection, schedule: Q04DX003 (ip), vehicle: saline
[2] = dose: 100.0 mg/kg/injection, schedule: Q04DX003 (ip), vehicle: saline with Tween-80
[3] = dose: 200.0 mg/kg/injection, schedule: Q04DX003 (ip), vehicle: saline with Tween-80
[4] = dose: 400.0 mg/kg/injection, schedule: Q04DX003 (ip), vehicle: saline with Tween-80
[5] = dose: 100.0 mg/kg/injection, schedule: Q04DX003 (ip), vehicle: Klucel (hydroxypropylcellulose) (HPC)
[6] = dose: 200.0 mg/kg/injection, schedule: Q04DX003 (ip), vehicle: Klucel (hydroxypropylcellulose) (HPC)
[7] = dose: 400.0 mg/kg/injection, schedule: Q04DX003 (ip), vehicle: Klucel (hydroxypropylcellulose) (HPC)
[8] = dose: 100.0 mg/kg/injection, schedule: Q04DX002 (ip), vehicle: Klucel (hydroxypropylcellulose) (HPC)
[9] = dose: 200.0 mg/kg/injection, schedule: Q04DX002 (ip), vehicle: Klucel (hydroxypropylcellulose) (HPC)
[10] = dose: 400.0 mg/kg/injection, schedule: Q04DX002 (ip), vehicle: Klucel (hydroxypropylcellulose) (HPC)
[11] = dose: 100.0 mg/kg/injection, schedule: Q01DX009 (ip), vehicle: Klucel (hydroxypropylcellulose) (HPC)
[12] = dose: 200.0 mg/kg/injection, schedule: Q01DX009 (ip), vehicle: Klucel (hydroxypropylcellulose) (HPC)
[13] = dose: 400.0 mg/kg/injection, schedule: Q01DX009 (ip), vehicle: Klucel (hydroxypropylcellulose) (HPC)
[14] = dose: 200.0 mg/kg/injection, schedule: Q04DX003 (ip), vehicle: saline
[15] = dose: 400.0 mg/kg/injection, schedule: Q04DX003 (ip), vehicle: saline
[16] = dose: 100.0 mg/kg/injection, schedule: Q01DX001 (ip), vehicle: saline
[17] = dose: 200.0 mg/kg/injection, schedule: Q01DX001 (ip), vehicle: saline
[18] = dose: 400.0 mg/kg/injection, schedule: Q01DX001 (ip), vehicle: saline

Measured: T/C

CCN(CC)CCOc1ccc(-c2nc3cc(Cl)ccc3s2)cc1
inactive: dose: 15.0 mg/kg/injection, schedule: Q01DX015 (ip), vehicle: saline 95 % of control | dose: 30.0 mg/kg/injection, schedule: Q01DX015 (ip), vehicle: saline 94 % of control | dose: 60.0 mg/kg/injection, schedule: Q01DX015 (ip), vehicle: saline 94 % of control | dose: 120.0 mg/kg/injection, schedule: Q01DX015 (ip), vehicle: saline 91 % of control

O=c1[nH]nc(-c2ccncc2)s1
inactive: dose: 20.0 mg/kg/injection, schedule: Q04DX003 (ip), vehicle: saline 101 % of control | dose: 40.0 mg/kg/injection, schedule: Q04DX003 (ip), vehicle: saline 96 % of control | dose: 75.0 mg/kg/injection, schedule: Q01DX001 (ip), vehicle: saline 94 % of control | dose: 75.0 mg/kg/injection, schedule: Q04DX003 (ip), vehicle: saline 96 % of control | [1] 98 % of control

Nc1ccc(N=Nc2ccccc2)cc1[N+](=O)[O-]
inactive: [2] 98 % of control | [3] 96 % of control | [4] 94 % of control

CC(Cl)CCN1CCCCC1 (configuration not stated)
inactive: dose: 50.0 mg/kg/injection, schedule: Q01DX001 (ip), vehicle: saline 104 % of control

Cc1ccc(NC(=O)c2cc3ccccc3cc2O)c(C)c1
inactive: dose: 100.0 mg/kg/injection, schedule: Q01DX001 (ip), vehicle: other 92 % of control | [5] 100 % of control | dose: 200.0 mg/kg/injection, schedule: Q01DX001 (ip), vehicle: other 92 % of control | [6] 94 % of control | dose: 400.0 mg/kg/injection, schedule: Q01DX001 (ip), vehicle: other 92 % of control | [7] 105 % of control

CCCCCCCCCCCCCCCCCCNC(=S)OC
inactive: [8] 91 % of control | [9] 97 % of control | [10] 102 % of control

O=C(Cc1cccc2ccccc12)NO
inactive: [11] 95 % of control | [5] 95 % of control | [12] 102 % of control | [6] 95 % of control | [13] 101 % of control | [7] 104 % of control

O=C(O)/C=C/C(=O)Nc1ccc(NC(=O)/C=C/C(=O)O)cc1
inactive: [2] 98 % of control | [3] 95 % of control | [4] 96 % of control

CN(C)c1ccc(C=C(c2ccc(N)cc2)c2ccc(N)cc2)cc1
inactive: [2] 93 % of control | [3] 96 % of control | [4] 96 % of control

C=CC(=O)Nc1ccc(Cl)cc1
inactive: dose: 25.0 mg/kg/injection, schedule: Q04DX003 (ip), vehicle: Klucel (hydroxypropylcellulose) (HPC) 98 % of control | dose: 50.0 mg/kg/injection, schedule: Q04DX003 (ip), vehicle: Klucel (hydroxypropylcellulose) (HPC) 96 % of control | [5] 107 % of control and 90 % of control

CCCCOc1ccc(C(=O)N/N=C\c2cc(OC)c(OC)c(OC)c2)cc1
inactive: [5] 94 % of control | [6] 94 % of control | [7] 91 % of control

COc1cccc2c1CCC1=C2CCC2CC(=O)CCC12C (configuration not stated)
inactive: dose: 100.0 mg/kg/injection, schedule: Q01DX001 (sc), vehicle: steriod suspending solution 98 % of control | dose: 200.0 mg/kg/injection, schedule: Q01DX001 (sc), vehicle: steriod suspending solution 100 % of control | dose: 400.0 mg/kg/injection, schedule: Q01DX001 (sc), vehicle: steriod suspending solution 100 % of control

CCCCCCCCCCCCO[P+](=O)OCCCCCCCCCCCC
inactive: dose: 100.0 mg/kg/injection, schedule: Q01DX009 (ip), vehicle: saline sonified 93 % of control | [1] 95 % of control | dose: 200.0 mg/kg/injection, schedule: Q01DX009 (ip), vehicle: saline sonified 93 % of control | [14] 100 % of control | dose: 222.0 mg/kg/injection, schedule: Q01DX Z (ip), vehicle: methylcellulose (MC) 96 % of control | dose: 333.0 mg/kg/injection, schedule: Q01DX Z (ip), vehicle: methylcellulose (MC) 95 % of control | [15] 90 % of control

C1=CC2CC3(OCCO3)C2C1 (configuration not stated)
inactive: [2] 95 % of control | [3] 92 % of control | [4] 92 % of control

CNc1ccccc1C(=O)N/N=C\c1ccc(Cl)cc1Cl
inactive: [8] 105 % of control | [9] 94 % of control | [10] 97 % of control

Nc1nc2nc(CCc3ccccc3)cnc2c(=O)[nH]1
inactive: dose: 25.0 mg/kg/injection, schedule: Q01DX001 (ip), vehicle: saline with Tween-80 96 % of control | dose: 50.0 mg/kg/injection, schedule: Q01DX001 (ip), vehicle: saline with Tween-80 93 % of control | dose: 100.0 mg/kg/injection, schedule: Q01DX001 (ip), vehicle: saline with Tween-80 90 % of control

Nc1ncnc2c1ncn2C1OC(CO)C(O)C1OCc1ccccc1 (configuration not stated)
inactive: dose: 100.0 mg/kg/injection, schedule: Q01DX005 (ip), vehicle: saline 90 % of control | dose: 200.0 mg/kg/injection, schedule: Q01DX005 (ip), vehicle: saline 103 % of control

NC(=N\C1=NCCO1)/C(N)=N/C1=NCCO1
inactive: [1] 109 % of control | [14] 107 % of control | [15] 97 % of control

CCc1cc2oc(C)c(C)c2c(N=Nc2ccc([N+](=O)[O-])cc2)c1O
inactive: [8] 102 % of control | [9] 96 % of control | [10] 99 % of control

O=[N+]([O-])c1cccc(C=Nc2cccc([N+](=O)[O-])c2)c1
inactive: dose: 100.0 mg/kg/injection, schedule: Q04DX003 (ip), vehicle: gum acacia 95 % of control | dose: 200.0 mg/kg/injection, schedule: Q04DX003 (ip), vehicle: gum acacia 93 % of control | dose: 400.0 mg/kg/injection, schedule: Q04DX003 (ip), vehicle: gum acacia 98 % of control

COc1nc(SC)nc2[nH]ccc12
inactive: dose: 75.0 mg/kg/injection, schedule: Q01DX001 (ip), vehicle: other 103 % of control | dose: 150.0 mg/kg/injection, schedule: Q01DX001 (ip), vehicle: other 100 % of control | dose: 300.0 mg/kg/injection, schedule: Q01DX001 (ip), vehicle: other 97 % of control

CCOC(=O)C1CCC(C(=O)OCC)N1C (configuration not stated)
inactive: [16] 97 % of control | dose: 100.0 mg/kg/injection, schedule: Q01DX009 (ip), vehicle: saline 96 % of control | [17] 88 % of control | dose: 200.0 mg/kg/injection, schedule: Q01DX009 (ip), vehicle: saline 98 % of control | [18] 95 % of control | dose: 400.0 mg/kg/injection, schedule: Q01DX009 (ip), vehicle: saline 100 % of control

Cc1ccc(CN=C=S)cc1
inactive: dose: 6.25 mg/kg/injection, schedule: Q01DX009 (ip), vehicle: saline with Tween-80 103 % of control | dose: 12.5 mg/kg/injection, schedule: Q01DX009 (ip), vehicle: saline with Tween-80 98 % of control | dose: 25.0 mg/kg/injection, schedule: Q01DX009 (ip), vehicle: saline with Tween-80 97 % of control

OCC1(CO)CCCCO1
inactive: [1] 96 % of control | [14] 95 % of control | [15] 101 % of control

Oc1ccc(-c2ccccc2)cc1O
inactive: [16] 105 % of control | [17] 109 % of control | [18] 109 % of control

OCCN1CCNCC1
inactive: [16] 105 % of control | [17] 105 % of control | [18] 100 % of control

N#CCCN(Cc1ccncc1)CN1C(=O)c2ccccc2C1=O
inactive: [11] 101 % of control | [12] 87 % of control | [13] 96 % of control

Oc1ccc(-c2cc3c(O)ccc(O)c3[nH]2)cc1O
inactive: dose: 25.0 mg/kg/injection, schedule: Q04DX002 (ip), vehicle: Klucel (hydroxypropylcellulose) (HPC) 86 % of control | dose: 50.0 mg/kg/injection, schedule: Q04DX002 (ip), vehicle: Klucel (hydroxypropylcellulose) (HPC) 93 % of control | [8] 89 % of control
